Test results: patent US20210379077A1, “TOPOISOMERASE II CATALYTIC INHIBITOR COMPOUND THERAPEUTICS FOR CANCER TREATMENT, METHODS AND USES” (The University of British Columbia, priority 2018, published 2021)

Columns and labels:
Topoisomerase II = molecular target: T1, Topoisomerase II (Homo sapiens, UniProt P11388); test: Topoisomerase II inhibition screening (supercoiled plasmid relaxation, then kDNA decatenation); format: biochemical; design: key to TOP2 Inhib.: Y is an indication that activity was found; conditions: for relative activity among compounds tested in the screening round: medium throughput relaxation and kDNA decatenation assays
T1 construct: purchased TopoGENE (TopoGEN) TG2000H / kit TG1001
Procedure: In vitro Topo II activity assays—K-DNA decatenation assays were performed using the human Topo II assay kit (TG1001, TopoGENE™) with Etoposide and ICRF193 as poison and catalytic inhibitors respectively. DNA relaxation assays were performed by incubating the supercoiled pHOT™ plasmid with human Topo IIα (TG2000H™, TopoGENE™) at 37 degrees for one hour. Reactions were stopped by adding 10% SDS, EDTA and proteinase K. Plasmid DNAs were separated on DNA agarose gel and stained with ethidium bromide for visualization.
Medium Throughput Screening Assays A supercoiled plasmid relaxation assay was used as a first, course filter to determine candidate small molecules. Small molecule candidates that were sufficiently active in the first round screening were then subject to the kDNA decatenation assay.
Second Round Screening With the discovered active compounds 19 and 23, a new screen was initiated to look for similar molecules. For this, the shape similarity screening program ROCS™^10 was used The compounds chosen for the ROCS™ search was based on the docking conformation of Compound 23. The ZINC-15 library filtered down to 6 million molecules described previously was used for this screening. The top 62 molecules were hand-picked based on their ROCS™ similarity as well as their docking scores. These molecules were ordered and tested with the same medium throughput assays previously described. A large enrichment in the proportion of active molecules was observed, of close to 10-fold relative to the first round, validating the virtual screening pipeline.

Cancer Cell = test: Cancer cell growth inhibition; format: cell-based; design: key: Y is an indication that activity was found
Procedure: BrDU incorporation and cell proliferation assays—Cell proliferation rates were measured by using the CellTitre™ 96 AqueousOne™ kit (Promega™) and bromodeoxyuridine (BrdU) assay kit (Millipore™) according to the manufacturer's protocol, with minor modifications as we have previously described by Li H. et al.^19

K562 cells = test: γH2AX Western blot (DNA damage in cells); format: cell-based; conditions: 10-20 μM, 4 hours
Procedure: Cytotoxicity was evaluated by measuring LDH levels from cell culture media; (b) K562 cells were treated with either vehicle or 10-20 μM of Top60, Etoposide and ICRF187 for 4 hours. Whole cell lyses were collected to measure γH2AX levels with vinculin as the loading control; (c) K562 cells were treated with 0, 1, 5, 10, 15 and 20 μM of Top60, 20 μM Etoposide or 20 uM ICRF187 for 48 hours. Cell proliferation rates were determined by MTS assays; and (d) K562 cells were treated with 20 μM of Top60, Etoposide or ICRF187 for 0, 24, 48 and 72 hours. Cell proliferation rates were measured by MTS assays. All results were collected from three independent experiments.
Top60 is a catalytic inhibitor of Topo II To verify that our lead Compound 60(Top60), the formation of ds DNA breaks was assayed both in and outside of cells. To assess whether Top60 causes double stranded DNA breaks outside cells, supercoiled plasmid was incubated with and without Top60 in the presence of Topo II (FIG. 1d). […] Furthermore, H2AXγ protein expression was assessed by Western blot to determine if the lead compound could cause DNA damage in cells, and compared to Etoposide as a control (FIG. 3b). […] To determine if Top60 was capable of intercalating DNA, it was incubated with relaxed plasmid at increasing concentrations and compared with m-AMSA, a known intercalator. […]

T1 sequence (P11388 whole entry): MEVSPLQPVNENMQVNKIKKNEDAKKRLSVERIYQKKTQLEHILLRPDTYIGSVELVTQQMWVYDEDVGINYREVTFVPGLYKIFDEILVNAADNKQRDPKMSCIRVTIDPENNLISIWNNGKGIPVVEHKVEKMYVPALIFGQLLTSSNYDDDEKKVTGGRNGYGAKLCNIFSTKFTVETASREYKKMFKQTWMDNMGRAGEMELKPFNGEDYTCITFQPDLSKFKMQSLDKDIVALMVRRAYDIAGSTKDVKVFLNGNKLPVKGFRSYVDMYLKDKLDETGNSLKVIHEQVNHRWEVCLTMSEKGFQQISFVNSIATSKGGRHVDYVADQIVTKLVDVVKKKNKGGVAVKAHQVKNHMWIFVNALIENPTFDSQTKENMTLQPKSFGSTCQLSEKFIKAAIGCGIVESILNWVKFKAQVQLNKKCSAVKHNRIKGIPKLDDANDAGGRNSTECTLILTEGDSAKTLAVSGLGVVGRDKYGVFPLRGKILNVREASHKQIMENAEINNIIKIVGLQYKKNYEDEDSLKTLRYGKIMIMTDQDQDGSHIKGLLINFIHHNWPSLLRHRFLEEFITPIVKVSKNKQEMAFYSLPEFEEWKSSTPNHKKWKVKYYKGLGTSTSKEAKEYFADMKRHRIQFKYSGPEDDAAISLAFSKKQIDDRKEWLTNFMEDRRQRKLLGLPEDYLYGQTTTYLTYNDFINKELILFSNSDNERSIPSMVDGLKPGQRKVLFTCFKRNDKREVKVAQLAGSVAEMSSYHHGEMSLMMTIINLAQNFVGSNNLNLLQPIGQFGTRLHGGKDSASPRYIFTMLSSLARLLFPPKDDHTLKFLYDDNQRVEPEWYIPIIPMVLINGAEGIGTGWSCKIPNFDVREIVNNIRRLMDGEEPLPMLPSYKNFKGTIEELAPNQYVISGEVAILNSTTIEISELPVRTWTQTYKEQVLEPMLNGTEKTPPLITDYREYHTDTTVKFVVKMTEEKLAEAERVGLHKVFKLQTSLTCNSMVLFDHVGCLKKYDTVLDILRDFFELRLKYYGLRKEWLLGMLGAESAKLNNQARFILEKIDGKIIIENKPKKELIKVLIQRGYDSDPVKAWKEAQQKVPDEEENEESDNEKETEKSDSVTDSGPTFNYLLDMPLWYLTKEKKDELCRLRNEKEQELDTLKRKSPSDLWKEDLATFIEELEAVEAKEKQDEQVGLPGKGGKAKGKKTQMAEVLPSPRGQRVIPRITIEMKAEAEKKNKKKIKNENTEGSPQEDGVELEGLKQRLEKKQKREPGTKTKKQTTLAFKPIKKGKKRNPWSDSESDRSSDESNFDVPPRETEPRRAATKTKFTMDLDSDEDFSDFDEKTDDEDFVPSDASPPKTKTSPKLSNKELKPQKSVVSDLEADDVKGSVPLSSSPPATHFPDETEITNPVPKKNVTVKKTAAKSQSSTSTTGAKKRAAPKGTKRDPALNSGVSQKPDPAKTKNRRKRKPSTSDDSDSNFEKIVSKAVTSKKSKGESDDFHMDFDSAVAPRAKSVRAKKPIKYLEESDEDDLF

Compound | TOP2 Inhib. (Topoisomerase II) | Cancer Cell Growth Inhib. (Cancer Cell) | relative activity among compounds tested in the screening round (Topoisomerase II) | DNA damage in cells by H2AXγ protein level (K562 cells)
N#Cc1ccc(Oc2ccc(NC(=O)c3ccc[nH]c3=S)cc2)cc1 [Compound 65] | Y | Y | – | –
CC(C)CC(=O)Nc1ccc(NC(=O)c2ccc[nH]c2=S)cc1 [Compound 23] | Y | Y | most active | –
COc1ccc(Nc2ccc(NC(=O)c3cccnc3S)cc2)cc1 [Compound 112] | Y | Y | – | –
CC(Nc1ccc(NC(=O)c2ccc[nH]c2=S)cc1)c1ccccc1 (centres unmarked) [Compound 115] | Y | Y | – | –
O=C(Nc1ccc(-n2cc(Br)cn2)nc1)c1ccc2ncsc2c1 [Compound 89] | Y | Y | – | –
CCC(=O)Nc1ccc(Nc2ccc(NC(=O)c3cccnc3S)cc2)cc1 [Compound 113] | Y | Y | – | –
CC(Nc1ccc(NC(=O)c2ccc[nH]c2=S)cc1Cl)c1ccccc1 (centres unmarked) [Compound 77] | Y | Y | – | –
NC1=C(c2nc3ccccc3s2)C(=O)CN1/N=C\c1ccc(O)c(O)c1 [Compound 19] | Y | Y | most active | –
CSc1ccccc1C(=O)Nc1ccc(NC(=O)CC(C)C)cc1 [Compound 72] | Y | Y | – | –
CC(C(C)N1CC(=O)NC(=O)C1)N1CC(=O)NC(=O)C1 (centres unmarked) [ICRF, 4-[2-(3,5-Dioxo-1-piperazinyl)-1-methylpropyl]piperazine-2,6-dione, reference compound] | – | – | – | do not cause DNA damage
COc1cccc(Oc2ccc(NC(=O)c3ccc[nH]c3=S)cc2)c1 [Compound 63] | Y | Y | – | –
O=C(Nc1ccc(NC(=O)N2CCCCCC2)cc1)c1ccc[nH]c1=S [Compound 75] | Y | Y | – | –
O=C(Nc1ccc(CN2CCCC2)cc1)c1ccc[nH]c1=S [Compound 62] | Y | Y | – | –
CC(NC(=O)OC(C)(C)C)c1ccc(NC(=O)c2ccc[nH]c2=S)cc1 (centres unmarked) [Compound 67] | Y | Y | – | –
COc1ccc(Sc2ccc(NC(=O)c3ccc[nH]c3=S)cc2)cc1 [Compound 68] | Y | Y | – | –
O=C(Nc1ccc(NC2CCCC2)cc1)c1ccc[nH]c1=S [Compound 70] | Y | Y | – | –
CCC(=O)Nc1ccc(NC(=O)c2ccc[nH]c2=S)cc1 [Compound 64] | Y | Y | – | –
O=C(Nc1ccc(N2CCc3sccc3C2)nc1)c1cccnc1S [Compound 110] | Y | Y | – | –
O=C(Nc1ccc(N2CCN(C(=O)c3ccoc3)CC2)cc1)c1ccc(Cl)c(Cl)c1 [Compound 88] | Y | Y | – | –
Cc1ccc(C(=O)Nc2ccc(OC3CCCCC3O)cc2)c(=S)[nH]1 (centres unmarked) [Compound 90] | Y | Y | – | –
